Reference: PubChem BioAssay (NCI)
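96-well plates; 48 h exposure; 5 concentrations. Endpoints by linear interpolation between flanking doses. Not reached: highest tested concentration assigned. TGI denotes the concentration required for complete inhibition of growth.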

Tests used:
Test in all cases: inhibition of tumour cell growth, NCI panel, 48 h
T-47D breast = system: T-47D breast
MCF7 breast = system: MCF7 breast
DU-145 prostate = system: DU-145 prostate

Measured: TGI

CCC(C(=O)c1ccc(OC)c(OC)c1)N(C(=O)C(F)(F)F)C(C)c1ccccc1 (stereo not drawn)
> 100 µM: T-47D breast | MCF7 breast | DU-145 prostate
